According to PubChem BioAssay AID1963966 (Molecular Pharmacology Branch, DTP, NCI, 2024):

Tested on: 935938-334-R-J1-PDC spheroids with HUVEC/MSC, viability
Test: Anticancer human tumor 935938-334-R-J1-PDC patient-derived small intestine adenocarcinoma cell line growth inhibition [PI3K]
Conditions: for IC50: curve of first compound; for viability, T/C: stronger effect = lower value
Summary of the method: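 High-throughput combination screen: PI3K inhibitors crossed with targeted small molecules on complex spheroids of tumor cells, HUVEC and MSCs at 37 degrees C, 5% CO2. Top concentration was at or near clinical Cmax (otherwise 10 microM), with half-log decrements.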

[1] = second compound 0.00316 µM, first compound 0.0316 µM
[2] = second compound 0.00316 µM, first compound 0.1 µM
[3] = second compound 0.00316 µM, first compound 0.316 µM
[4] = second compound 0.00316 µM, first compound 1 µM
[5] = second compound 0.00316 µM, first compound 3.16 µM
[6] = second compound 0.00316 µM, first compound 10 µM
[7] = second compound 0.01 µM, first compound 0.0316 µM
[8] = second compound 0.01 µM, first compound 0.1 µM
[9] = second compound 0.01 µM, first compound 0.316 µM
[10] = second compound 0.01 µM, first compound 1 µM
[11] = second compound 0.01 µM, first compound 3.16 µM
[12] = second compound 0.01 µM, first compound 10 µM
[13] = second compound 0.0316 µM, first compound 0.0316 µM
[14] = second compound 0.0316 µM, first compound 0.1 µM
[15] = second compound 0.0316 µM, first compound 0.316 µM
[16] = second compound 0.0316 µM, first compound 1 µM
[17] = second compound 0.0316 µM, first compound 3.16 µM
[18] = second compound 0.0316 µM, first compound 10 µM
[19] = second compound 0.1 µM, first compound 0.0316 µM
[20] = second compound 0.1 µM, first compound 0.1 µM
[21] = second compound 0.1 µM, first compound 0.316 µM
[22] = second compound 0.1 µM, first compound 1 µM
[23] = second compound 0.1 µM, first compound 3.16 µM
[24] = second compound 0.1 µM, first compound 10 µM
[25] = second compound 0.316 µM, first compound 0.0316 µM
[26] = second compound 0.316 µM, first compound 0.1 µM
[27] = second compound 0.316 µM, first compound 0.316 µM
[28] = second compound 0.316 µM, first compound 1 µM
[29] = second compound 0.316 µM, first compound 3.16 µM
[30] = second compound 0.316 µM, first compound 10 µM
[31] = second compound 1 µM, first compound 0.0316 µM
[32] = second compound 1 µM, first compound 0.1 µM
[33] = second compound 1 µM, first compound 0.316 µM
[34] = second compound 1 µM, first compound 1 µM
[35] = second compound 1 µM, first compound 3.16 µM
[36] = second compound 1 µM, first compound 10 µM
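Note: compound exposure lasted seven days before viability was read.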
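Throughout, for viability, T/C: percent of vehicle DMSO treated spheroid viability so 100% = untreated.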

## C#Cc1c(F)ccc2cc(O)cc(-c3ncc4c(N5CC6CCC(C5)N6)nc(OCC56CCCN5CC(F)C6)nc4c3F)c12 (stereo not drawn) + COc1c(OCCCN2CCOCC2)ccc2c3n(c(=NC(=O)c4cnc(N)nc4)nc12)CCN3
Second compound 0.00316 µM
  IC50: 5090 nM
Second compound 0.01 µM
  IC50: 2250 nM
Second compound 0.0316 µM
  IC50: 586 nM
Second compound 0.1 µM
  IC50: 81.8 nM
Second compound 0.316 µM
  IC50: < 31.6 nM
Second compound 1 µM
  IC50: < 31.6 nM
[1]
  viability, T/C: 97.9%
[2]
  viability, T/C: 91.9%
[3]
  viability, T/C: 75.3%
[4]
  viability, T/C: 70.9%
[5]
  viability, T/C: 57%
[6]
  viability, T/C: 40.7%
[7]
  viability, T/C: 101%
[8]
  viability, T/C: 86.4%
[9]
  viability, T/C: 103%
[10]
  viability, T/C: 65.2%
[11]
  viability, T/C: 46.5%
[12]
  viability, T/C: 29.2%
[13]
  viability, T/C: 66.4%
[14]
  viability, T/C: 72.4%
[15]
  viability, T/C: 53.6%
[16]
  viability, T/C: 44.4%
[17]
  viability, T/C: 31%
[18]
  viability, T/C: 22.5%
[19]
  viability, T/C: 57.5%
[20]
  viability, T/C: 46.2%
[21]
  viability, T/C: 39.9%
[22]
  viability, T/C: 23%
[23]
  viability, T/C: 24.2%
[24]
  viability, T/C: 21.8%
[25]
  viability, T/C: 34.4%
[26]
  viability, T/C: 29.5%
[27]
  viability, T/C: 27.7%
[28]
  viability, T/C: 25.1%
[29]
  viability, T/C: 25.6%
[30]
  viability, T/C: 19.9%
[31]
  viability, T/C: 27.3%
[32]
  viability, T/C: 30.4%
[33]
  viability, T/C: 34.1%
[34]
  viability, T/C: 24.6%
[35]
  viability, T/C: 22.2%
[36]
  viability, T/C: 23.9%

## CC(Cn1ccc(-c2ccc(C#N)c(Cl)c2)n1)NC(=O)c1cc(C(C)O)[nH]n1 (stereo not drawn) + COc1c(OCCCN2CCOCC2)ccc2c3n(c(=NC(=O)c4cnc(N)nc4)nc12)CCN3
Second compound 0.00316 µM
  IC50: > 10000 nM
Second compound 0.01 µM
  IC50: > 10000 nM
Second compound 0.0316 µM
  IC50: > 10000 nM
Second compound 0.1 µM
  IC50: 1020 nM
Second compound 0.316 µM
  IC50: < 31.6 nM
Second compound 1 µM
  IC50: < 31.6 nM
[1]
  viability, T/C: 98%
[2]
  viability, T/C: 87.8%
[3]
  viability, T/C: 84.1%
[4]
  viability, T/C: 89.2%
[5]
  viability, T/C: 121%
[6]
  viability, T/C: 107%
[7]
  viability, T/C: 97.6%
[8]
  viability, T/C: 95.2%
[9]
  viability, T/C: 88.1%
[10]
  viability, T/C: 77.2%
[11]
  viability, T/C: 99.4%
[12]
  viability, T/C: 78.7%
[13]
  viability, T/C: 75.8%
[14]
  viability, T/C: 61.2%
[15]
  viability, T/C: 88.5%
[16]
  viability, T/C: 79%
[17]
  viability, T/C: 89.1%
[18]
  viability, T/C: 67.1%
[19]
  viability, T/C: 40.6%
[20]
  viability, T/C: 57.2%
[21]
  viability, T/C: 54.6%
[22]
  viability, T/C: 49.9%
[23]
  viability, T/C: 41.2%
[24]
  viability, T/C: 33%
[25]
  viability, T/C: 36.6%
[26]
  viability, T/C: 35.6%
[27]
  viability, T/C: 29.5%
[28]
  viability, T/C: 36%
[29]
  viability, T/C: 33.9%
[30]
  viability, T/C: 30.8%
[31]
  viability, T/C: 35.8%
[32]
  viability, T/C: 39%
[33]
  viability, T/C: 43.6%
[34]
  viability, T/C: 39.9%
[35]
  viability, T/C: 31.4%
[36]
  viability, T/C: 28.9%

## CC1(C)CCC(Nc2ncc(C(F)(F)F)c(-c3c[nH]c4c(P(C)(C)=O)c(C#N)ccc34)n2)CN1 (stereo not drawn) + COc1c(OCCCN2CCOCC2)ccc2c3n(c(=NC(=O)c4cnc(N)nc4)nc12)CCN3
Second compound 0.00316 µM
  IC50: < 31.6 nM
Second compound 0.01 µM
  IC50: < 31.6 nM
Second compound 0.0316 µM
  IC50: < 31.6 nM
Second compound 0.1 µM
  IC50: < 31.6 nM
Second compound 0.316 µM
  IC50: < 31.6 nM
Second compound 1 µM
  IC50: < 31.6 nM
[1]
  viability, T/C: 47.8%
[2]
  viability, T/C: 35.4%
[3]
  viability, T/C: 35%
[4]
  viability, T/C: 33%
[5]
  viability, T/C: 37.3%
[6]
  viability, T/C: 8.87%
[7]
  viability, T/C: 40.9%
[8]
  viability, T/C: 34.9%
[9]
  viability, T/C: 30.1%
[10]
  viability, T/C: 34.6%
[11]
  viability, T/C: 29.6%
[12]
  viability, T/C: 8.72%
[13]
  viability, T/C: 30.4%
[14]
  viability, T/C: 35.4%
[15]
  viability, T/C: 33.1%
[16]
  viability, T/C: 27.5%
[17]
  viability, T/C: 34.2%
[18]
  viability, T/C: 6.35%
[19]
  viability, T/C: 35%
[20]
  viability, T/C: 22.9%
[21]
  viability, T/C: 20.2%
[22]
  viability, T/C: 23.8%
[23]
  viability, T/C: 25.7%
[24]
  viability, T/C: 6.52%
[25]
  viability, T/C: 25%
[26]
  viability, T/C: 21%
[27]
  viability, T/C: 22.8%
[28]
  viability, T/C: 22.1%
[29]
  viability, T/C: 23.3%
[30]
  viability, T/C: 4.96%
[31]
  viability, T/C: 18.2%
[32]
  viability, T/C: 24.7%
[33]
  viability, T/C: 15.8%
[34]
  viability, T/C: 24.9%
[35]
  viability, T/C: 19%
[36]
  viability, T/C: 3.4%

## Cn1cnc2c(F)c(Nc3ccc(Br)cc3Cl)c(C(=O)NOCCO)cc21 + Cc1nc(NC(=O)N2CCCC2C(N)=O)sc1-c1ccnc(C(C)(C)C(F)(F)F)c1
Second compound 0.0316 µM
  IC50: 37 nM
Second compound 0.1 µM
  IC50: 29.7 nM
Second compound 0.316 µM
  IC50: 29 nM
Second compound 1 µM
  IC50: 11.6 nM
Second compound 3.16 µM
  IC50: < 9.49 nM
Second compound 10 µM
  IC50: < 9.49 nM
Second compound 0.0316 µM, first compound 0.00949 µM
  viability, T/C: 62%
Second compound 0.0316 µM, first compound 0.03 µM
  viability, T/C: 54.8%
Second compound 0.0316 µM, first compound 0.0949 µM
  viability, T/C: 32.8%
Second compound 0.0316 µM, first compound 0.3 µM
  viability, T/C: 31.1%
Second compound 0.0316 µM, first compound 0.949 µM
  viability, T/C: 20.4%
Second compound 0.0316 µM, first compound 3 µM
  viability, T/C: 22.9%
Second compound 0.1 µM, first compound 0.00949 µM
  viability, T/C: 73.7%
Second compound 0.1 µM, first compound 0.03 µM
  viability, T/C: 44.7%
Second compound 0.1 µM, first compound 0.0949 µM
  viability, T/C: 41.4%
Second compound 0.1 µM, first compound 0.3 µM
  viability, T/C: 25.8%
Second compound 0.1 µM, first compound 0.949 µM
  viability, T/C: 23.6%
Second compound 0.1 µM, first compound 3 µM
  viability, T/C: 17.2%
Second compound 0.316 µM, first compound 0.00949 µM
  viability, T/C: 62.9%
Second compound 0.316 µM, first compound 0.03 µM
  viability, T/C: 48.5%
Second compound 0.316 µM, first compound 0.0949 µM
  viability, T/C: 36.9%
Second compound 0.316 µM, first compound 0.3 µM
  viability, T/C: 23%
Second compound 0.316 µM, first compound 0.949 µM
  viability, T/C: 18.6%
Second compound 0.316 µM, first compound 3 µM
  viability, T/C: 17.3%
Second compound 1 µM, first compound 0.00949 µM
  viability, T/C: 52.9%
Second compound 1 µM, first compound 0.03 µM
  viability, T/C: 37%
Second compound 1 µM, first compound 0.0949 µM
  viability, T/C: 26.4%
Second compound 1 µM, first compound 0.3 µM
  viability, T/C: 19.4%
Second compound 1 µM, first compound 0.949 µM
  viability, T/C: 14.2%
Second compound 1 µM, first compound 3 µM
  viability, T/C: 12.6%
Second compound 3.16 µM, first compound 0.00949 µM
  viability, T/C: 30.8%
Second compound 3.16 µM, first compound 0.03 µM
  viability, T/C: 39.6%
Second compound 3.16 µM, first compound 0.0949 µM
  viability, T/C: 19.6%
Second compound 3.16 µM, first compound 0.3 µM
  viability, T/C: 17.2%
Second compound 3.16 µM, first compound 0.949 µM
  viability, T/C: 18.5%
Second compound 3.16 µM, first compound 3 µM
  viability, T/C: 11.1%
Second compound 10 µM, first compound 0.00949 µM
  viability, T/C: 28.7%
Second compound 10 µM, first compound 0.03 µM
  viability, T/C: 20.5%
Second compound 10 µM, first compound 0.0949 µM
  viability, T/C: 17.2%
Second compound 10 µM, first compound 0.3 µM
  viability, T/C: 14.8%
Second compound 10 µM, first compound 0.949 µM
  viability, T/C: 14.8%
Second compound 10 µM, first compound 3 µM
  viability, T/C: 12.1%
